Reference: patent US7175844B2, “Methods of modulating fibrosis” (Joslin Diabetes Center, Inc., priority 2000, dated 2007)
Like-named read-outs stand apart in the source and are kept apart here.

How the values were obtained:
[1] = test system: VEGF-induced CTGF mRNA expression; assay: Effect on VEGF-induced CTGF mRNA expression in BRPC; assay type: cell-based, bovine; conditions: for effect on VEGF-induced CTGF mRNA expression: pretreatment GF 109203X 1 μM or PD98059 20 μM
Protocol: (§1) H) Northern Blot Analysis—Total RNA was isolated using acid-guanidinium thiocyanate, and Northern blot analysis was performed. Total RNA (20 μg) was electrophoresed through 1% formaldehyde-agarose gels and then transferred to a nylon membrane. ^32P-Labeled cDNA probes were generated by use of labeling kits (Megaprime DNA labeling systems, Amersham Pharmacia Biotech). After ultraviolet cross-linking using a UV cross-linker (Stratagene, La Jolla, Calif.), blots were pre-hybridized, hybridized, and washed in 0.5×SSC, 5% SDS at 65° C. with 4 changes over 1 h. All signals were analyzed using a PhosphorImager, and lane loading differences were normalized.
(§2) I) Analysis of CTGF mRNA Half-life—CTGF mRNA half-life experiments were carried out using BREC and BRPC. […] Transcription was inhibited by the addition of actinomycin D (5 μg/ml).

[2] = test system: VEGF-induced CTGF mRNA expression; assay: Effect on VEGF-induced CTGF mRNA expression in BREC; assay type: cell-based, bovine
Protocol: as §1, §2

CTGF mRNA [3] = assay: CTGF mRNA expression by Northern blot analysis in BREC; assay type: cell-based, bovine; conditions: for CTGF mRNA levels increase (comparative study): VEGF 25 ng/ml, TGF-β1 10 ng/ml
Protocol: (§3) Since BREC and BRPC may express both KDR and Flt1, we examined the effects of P1GF, a Flt1-specific ligand, on the induction of CTGF gene expression in vascular cells.
(§4) B) Cell Culture—Primary cultures of bovine retinal endothelial cells (BREC) and pericytes (BRPC) were isolated by homogenization and a series of filtration steps as described previously. BREC were subsequently cultured with endothelial cell basal medium supplemented with 10% plasma-derived horse serum, 50 mg/liter heparin, and 50 μg/ml endothelial cell growth factor. BRPC were cultured in Dulbecco's modified Eagle's medium with 5.5 mM glucose and 20% fetal bovine serum. Cells were cultured in 5% CO2 at 37° C., and media were changed every 3 days. Cells were characterized for their homogeneity by immunoreactivity with anti-factor VIII antibody for BREC and with monoclonal antibody 3G5 for BRPC. […] Only cells from passages 2 through 7 were used for the experiments.
as §1

CTGF protein [4] = assay: CTGF protein expression by Western blot analysis in BREC; assay type: cell-based, bovine; conditions: for CTGF protein expression increase: VEGF 25 ng/ml, TGF-β1 10 ng/ml
Protocol: (§5) E) Western Blot Analysis—Immunoprecipitated proteins or 30 μg of total cell lysates were subjected to SDS-gel electrophoresis and electrotransferred to nitrocellulose membrane (Bio-Rad). The membrane was soaked in blocking buffer (phosphate-buffered saline containing 0.1% Tween 20 and 5% bovine serum albumin) for 1 h at room temperature and incubated with primary antibody overnight at 4° C. followed by incubation with horseradish peroxidase-conjugated secondary antibody (Amersham Pharmacia Biotech). Visualization was performed using the enhanced chemiluminescence detection system (ECL, Amersham Pharmacia Biotech) per the manufacturer's instructions.

KDR = biological target: T1, KDR (Bos taurus, UniProt A0AAA9SPC9); assay: Immunoblot of KDR immunoprecipitates from BREC (phosphotyrosine, PI3-kinase p85); assay type: cell-based, bovine
T1 construct: endogenous in cells; host or cells: primary bovine retinal endothelial cells (BREC)
T1 sequence (A0AAA9SPC9 20-1356): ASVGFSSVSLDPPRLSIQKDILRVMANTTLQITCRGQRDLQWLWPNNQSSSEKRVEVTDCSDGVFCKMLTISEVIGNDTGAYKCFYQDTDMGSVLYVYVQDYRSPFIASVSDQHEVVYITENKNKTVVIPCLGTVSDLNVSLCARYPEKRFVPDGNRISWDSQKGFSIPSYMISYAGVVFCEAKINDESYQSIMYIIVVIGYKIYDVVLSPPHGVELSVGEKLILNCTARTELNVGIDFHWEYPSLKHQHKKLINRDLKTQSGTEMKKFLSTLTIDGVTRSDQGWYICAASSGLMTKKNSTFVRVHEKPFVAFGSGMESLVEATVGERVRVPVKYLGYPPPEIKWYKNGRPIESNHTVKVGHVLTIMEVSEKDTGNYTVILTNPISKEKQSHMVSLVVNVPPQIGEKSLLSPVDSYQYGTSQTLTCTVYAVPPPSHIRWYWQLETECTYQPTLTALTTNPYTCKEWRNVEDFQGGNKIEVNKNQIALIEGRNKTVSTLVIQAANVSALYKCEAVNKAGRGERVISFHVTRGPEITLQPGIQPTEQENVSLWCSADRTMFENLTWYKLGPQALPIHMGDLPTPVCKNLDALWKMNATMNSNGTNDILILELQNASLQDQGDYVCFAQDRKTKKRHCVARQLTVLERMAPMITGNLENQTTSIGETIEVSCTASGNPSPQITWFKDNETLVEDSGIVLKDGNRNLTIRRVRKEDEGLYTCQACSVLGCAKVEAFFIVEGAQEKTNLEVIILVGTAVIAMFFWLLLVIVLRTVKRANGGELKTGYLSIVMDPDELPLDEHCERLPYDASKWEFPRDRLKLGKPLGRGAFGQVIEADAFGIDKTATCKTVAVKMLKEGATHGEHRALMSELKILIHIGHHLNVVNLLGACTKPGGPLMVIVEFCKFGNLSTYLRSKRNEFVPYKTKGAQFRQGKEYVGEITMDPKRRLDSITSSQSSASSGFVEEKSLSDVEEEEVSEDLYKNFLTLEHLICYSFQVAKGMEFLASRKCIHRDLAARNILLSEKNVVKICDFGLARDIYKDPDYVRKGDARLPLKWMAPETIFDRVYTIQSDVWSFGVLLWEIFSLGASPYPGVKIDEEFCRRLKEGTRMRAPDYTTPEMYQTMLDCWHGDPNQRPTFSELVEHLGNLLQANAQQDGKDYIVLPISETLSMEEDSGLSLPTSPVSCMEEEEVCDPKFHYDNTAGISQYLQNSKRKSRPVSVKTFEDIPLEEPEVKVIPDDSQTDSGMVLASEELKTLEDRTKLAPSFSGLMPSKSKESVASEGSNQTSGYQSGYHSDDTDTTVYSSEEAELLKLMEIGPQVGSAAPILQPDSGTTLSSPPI
Protocol: (§6) D) Immunoprecipitation—Cells were washed three times with cold phosphate-buffered saline and solubilized in 200 μl of lysis buffer (1% Triton X-100, 50 mmol/liter HEPES, 10 mmol/liter EDTA, 10 mmol/liter sodium pyrophosphate, 100 mmol/liter sodium fluoride, 1 mmol/liter sodium orthovanadate, 1 μg/ml aprotinin, 1 μg/ml leupeptin, and 2 mmol/liter phenylmethylsulfonyl fluoride). After centrifugation at 12,000 rpm for 10 min, 1.0 mg of protein was subjected to immunoprecipitation. To clear the protein extract, protein A-Sepharose (20 μl of a 50% suspension) was added to the cell lysates, after which they were incubated for 1 h, followed by centrifugation and collection of the supernatant. A specific rabbit anti-KDR or Flt1 antibody was added and rocked at 4° C. for 2 h; 20 μl of protein A-Sepharose was then added, and the sample was rocked for another 2 h at 4° C. For denaturation, protein A-Sepharose antigen-antibody conjugates were separated by centrifugation, washed five times, and boiled for 3 min in Laemmli sample buffer.
as §5

CTGF mRNA [5] = assay: CTGF mRNA expression by Northern blot analysis in BRPC; assay type: cell-based, bovine; conditions: for CTGF mRNA levels, maximum increase: 25 ng/ml, after 9 h
Protocol: as §3, §4, §1

Erk = test system: Erk
Protocol: as §5

Akt = test system: Akt
Protocol: as §5

CTGF protein [6] = conditions: BRPC, 25 ng/ml, after 10 h
Protocol: as §5

Flt1 [7] = biological target: Flt1 (Homo sapiens, UniProt P17948); conditions: known value; cited from earlier work
Sequence of Flt1 (Homo sapiens, UniProt P17948) (P17948 27-1338, species assumed): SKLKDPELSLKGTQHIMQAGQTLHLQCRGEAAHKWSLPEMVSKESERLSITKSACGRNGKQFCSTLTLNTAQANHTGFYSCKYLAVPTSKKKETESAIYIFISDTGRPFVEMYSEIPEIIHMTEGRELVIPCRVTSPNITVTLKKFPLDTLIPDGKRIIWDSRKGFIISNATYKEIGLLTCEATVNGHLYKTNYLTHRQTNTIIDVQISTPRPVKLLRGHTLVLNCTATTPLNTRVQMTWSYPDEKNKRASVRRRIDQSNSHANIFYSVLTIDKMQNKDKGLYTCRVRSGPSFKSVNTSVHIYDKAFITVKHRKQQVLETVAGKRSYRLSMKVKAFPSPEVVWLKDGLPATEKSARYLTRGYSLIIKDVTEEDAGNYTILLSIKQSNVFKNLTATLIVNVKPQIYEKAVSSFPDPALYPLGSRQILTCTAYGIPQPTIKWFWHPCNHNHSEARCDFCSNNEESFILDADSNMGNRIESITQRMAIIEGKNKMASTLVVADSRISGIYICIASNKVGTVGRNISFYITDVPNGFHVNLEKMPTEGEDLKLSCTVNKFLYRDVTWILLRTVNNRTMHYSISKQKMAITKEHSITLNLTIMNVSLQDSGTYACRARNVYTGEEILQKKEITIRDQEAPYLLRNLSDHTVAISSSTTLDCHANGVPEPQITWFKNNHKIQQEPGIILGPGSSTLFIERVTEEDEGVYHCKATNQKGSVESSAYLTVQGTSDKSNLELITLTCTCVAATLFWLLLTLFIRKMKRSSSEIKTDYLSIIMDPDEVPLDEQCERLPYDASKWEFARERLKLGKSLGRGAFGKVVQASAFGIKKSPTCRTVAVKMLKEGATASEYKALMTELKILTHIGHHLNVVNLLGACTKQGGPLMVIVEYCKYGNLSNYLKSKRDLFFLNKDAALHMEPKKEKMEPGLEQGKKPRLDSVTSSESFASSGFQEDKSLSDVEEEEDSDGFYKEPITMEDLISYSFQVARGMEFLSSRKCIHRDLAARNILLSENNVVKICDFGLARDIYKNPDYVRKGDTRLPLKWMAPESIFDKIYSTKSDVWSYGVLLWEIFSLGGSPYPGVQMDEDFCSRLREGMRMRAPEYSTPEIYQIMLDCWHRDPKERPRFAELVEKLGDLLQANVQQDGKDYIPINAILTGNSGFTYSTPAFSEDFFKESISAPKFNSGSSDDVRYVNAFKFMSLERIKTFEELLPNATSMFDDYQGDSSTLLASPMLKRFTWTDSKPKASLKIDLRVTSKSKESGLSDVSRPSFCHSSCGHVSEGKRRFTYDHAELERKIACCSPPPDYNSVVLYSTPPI

Flt1 [8] = biological target: T2, Flt1 (Bos taurus, UniProt F1MDD9); assay: Immunoblot of Flt1 immunoprecipitates from BRPC (phosphotyrosine, PI3-kinase p85); assay type: cell-based, bovine
T2 construct: endogenous in cells; host or cells: primary bovine retinal pericytes (BRPC)
T2 sequence (F1MDD9 1-1251): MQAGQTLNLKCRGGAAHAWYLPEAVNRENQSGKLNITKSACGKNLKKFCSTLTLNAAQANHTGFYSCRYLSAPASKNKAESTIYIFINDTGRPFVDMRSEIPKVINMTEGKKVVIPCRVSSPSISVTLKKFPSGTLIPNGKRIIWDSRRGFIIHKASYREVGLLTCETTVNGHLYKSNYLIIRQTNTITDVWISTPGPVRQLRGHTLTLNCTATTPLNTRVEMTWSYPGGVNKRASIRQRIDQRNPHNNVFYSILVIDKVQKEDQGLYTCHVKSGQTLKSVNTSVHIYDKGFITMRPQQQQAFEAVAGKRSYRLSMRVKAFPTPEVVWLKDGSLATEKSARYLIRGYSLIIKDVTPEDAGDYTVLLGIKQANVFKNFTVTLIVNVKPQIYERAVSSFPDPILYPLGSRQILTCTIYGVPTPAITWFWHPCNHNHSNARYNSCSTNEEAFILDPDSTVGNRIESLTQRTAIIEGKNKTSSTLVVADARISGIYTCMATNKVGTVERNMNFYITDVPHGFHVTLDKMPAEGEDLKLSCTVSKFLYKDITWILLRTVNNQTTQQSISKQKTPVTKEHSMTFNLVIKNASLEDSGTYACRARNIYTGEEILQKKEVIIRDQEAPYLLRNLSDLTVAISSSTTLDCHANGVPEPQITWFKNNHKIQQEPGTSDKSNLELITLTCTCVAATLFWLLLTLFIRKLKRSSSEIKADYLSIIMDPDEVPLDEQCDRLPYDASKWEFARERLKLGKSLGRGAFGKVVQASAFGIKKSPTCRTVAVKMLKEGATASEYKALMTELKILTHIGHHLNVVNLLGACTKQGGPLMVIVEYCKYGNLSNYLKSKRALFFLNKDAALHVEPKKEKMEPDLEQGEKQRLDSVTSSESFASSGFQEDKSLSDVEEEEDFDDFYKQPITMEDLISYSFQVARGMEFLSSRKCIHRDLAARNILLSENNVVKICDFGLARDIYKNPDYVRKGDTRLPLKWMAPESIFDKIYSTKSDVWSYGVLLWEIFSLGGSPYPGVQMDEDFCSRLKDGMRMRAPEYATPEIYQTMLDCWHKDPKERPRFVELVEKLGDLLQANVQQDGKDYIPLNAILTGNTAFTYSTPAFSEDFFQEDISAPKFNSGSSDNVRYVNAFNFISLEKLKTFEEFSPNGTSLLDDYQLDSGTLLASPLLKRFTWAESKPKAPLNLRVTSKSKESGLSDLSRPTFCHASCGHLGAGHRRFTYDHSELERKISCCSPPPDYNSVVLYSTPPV
Protocol: as §6

[9] = biological target: KDR/Flk1 (VEGFR2) (bovine); assay: cell-based or functional assay
Flt1 (VEGFR1) (bovine) = assay: cell-based or functional assay
[10] = cycloheximide 10 μg/ml, VEGF 25 ng/ml, 6 h
[11] = inhibitor pretreatment (wortmannin 100 nM), VEGF 25 ng/ml 6 h
[12] = VEGF 25 ng/ml + cycloheximide 10 μg/ml, 6 h

## C[C@@H]1C[C@@H]([C@H](O)CC2CC(=O)NC(=O)C2)C(=O)[C@@H](C)C1 [Cycloheximide, cycloheximide]
[1]; [10]
  effect on VEGF-induced increase of CTGF mRNA: did not prevent
[2]; [10]
  effect on VEGF-induced increase of CTGF mRNA: did not prevent

## CN(C)CCCn1cc(C2=C(c3c[nH]c4ccccc34)C(=O)NC2=O)c2ccccc21 [GF 109203X]
[1]; VEGF 25 ng/ml 6 h
  effect on VEGF-induced CTGF mRNA expression: Neither GF 109203X nor PD98059 had significant effects
[2]; pretreatment GF 109203X 1 μM or PD98059 20 μM, VEGF 25 ng/ml 6 h
  effect on VEGF-induced CTGF mRNA expression: Neither GF 109203X nor PD98059 had significant effects

## COc1cccc(-c2cc(=O)c3ccccc3o2)c1N [PD98059]
[1]; VEGF 25 ng/ml 6 h
  effect on VEGF-induced CTGF mRNA expression: Neither GF 109203X nor PD98059 had significant effects

## COC[C@H]1OC(=O)c2coc3c2[C@@]1(C)C1=C(C3=O)[C@@H]2CCC(=O)[C@@]2(C)C[C@H]1OC(C)=O [wortmannin]
[1]; [11]
  inhibition of the effects of VEGF on CTGF mRNA expression: 78±22%
[2]; [11]
  inhibition of the effects of VEGF on CTGF mRNA expression: 88±6.5%

## TGF-β1: transforming growth factor-β1, from R & D Systems
CTGF mRNA [3]
  CTGF mRNA levels increase (comparative study): 3.3±0.5 fold
CTGF protein [4]
  CTGF protein expression increase: 2.8±0.8 fold

## VEGF
CTGF mRNA [3]; 25 ng/ml, after 6 h
  CTGF mRNA levels, maximum increase: 3.1±0.70 fold
CTGF mRNA [3]; 6 h of stimulation
  concentration of maximal increase of CTGF mRNA: 25 ng/mL
  lowest concentration with significant increase of CTGF mRNA: 0.25 ng/mL
CTGF mRNA [3]; [12]
  CTGF mRNA increase with cycloheximide, compared with cycloheximide alone: 2.4±0.41 fold
CTGF mRNA [3]
  CTGF mRNA levels increase (comparative study): 3.0±0.3 fold
KDR
  interactions of KDR and p85 subunit of PI3-kinase: promoted
  tyrosine phosphorylation of KDR: promoted
CTGF protein [4]; 25 ng/ml, after 10 h
  level of CTGF protein: increased
CTGF protein [4]
  CTGF protein expression increase: 2.5±0.4 fold
CTGF mRNA [5]
  CTGF mRNA levels, maximum increase: 2.0±0.22 fold
CTGF mRNA [5]; 6 h of stimulation
  concentration of maximal increase of CTGF mRNA: 25 ng/mL
  lowest concentration with significant increase of CTGF mRNA: 0.25 ng/mL
CTGF mRNA [5]; [12]
  CTGF mRNA increase with cycloheximide, compared with cycloheximide alone: 2.5±0.40 fold
Erk; BREC
  phosphorylation of Erk: 5.8 fold
Erk; BRPC
  Erk phosphorylation: No effect
Akt; BREC
  phosphorylation of Akt: 3.1 fold
Akt; BRPC
  phosphorylation of Akt: 2.6 fold
CTGF protein [6]
  level of CTGF protein: increased
Flt1 [7]
  Kd: 0.01 to 0.1 nM
Flt1 [8]
  interactions of Flt1 and p85 subunit of PI3-kinase: increased
  tyrosine phosphorylation of Flt1: increased

## Vascular endothelial growth factor (VEGF) (ligand)
[9]
  CTGF mRNA (Northern blot, BREC, 25 ng/ml VEGF, maximum after 6 h): 3.1 fold
Flt1 (VEGFR1) (bovine)
  CTGF mRNA (Northern blot, BRPC, 25 ng/ml VEGF, maximum after 9 h): 2 fold

## placenta growth factor (P1GF) (ligand)
Flt1 (VEGFR1) (bovine)
  CTGF mRNA (Northern blot, BRPC, 25 ng/ml P1GF, peak after 9 h): 1.9 fold

B1: P1GF: placenta growth factor, a Flt1 receptor-specific ligand, from R & D Systems (protein, UniProt P49763 19-221, looked up)
Placenta growth factor: LPAVPPQQWALSAGNGSSEVEVVPFQEVWGRSYCRALERLVDVVSEYPSEVEHMFSPSCVSLLRCTGCCGDENLHCVPVETANVTMQLLKIRSGDRPSYVELTFSQHVRCECRHSPGRQSPDMPGDFRADAPSFLPPRRSLPMLFRMEWGCALTGSQSAVWPSSPVPEEIPRMHPGRNGKKQQRKPLREKMKPERCGDAVPRR
CTGF mRNA [3]; 25 ng/ml
  CTGF mRNA levels after stimulation: not affected
KDR
  interactions of KDR and p85 subunit of PI3-kinase: not
  tyrosine phosphorylation of KDR: not
CTGF mRNA [5]
  CTGF mRNA levels, maximum increase: 1.9±0.30 fold
Flt1 [8]
  interactions of Flt1 and p85 subunit of PI3-kinase: increased
  tyrosine phosphorylation of Flt1: increased
